The subject of series [1] is subgenomic HCV genotype 1b replicon. On the set-up: method as in PMID 30951311. The conditions noted are these: cited from earlier work.
The subject of series [2] is HCV. On the set-up: method as in PMID 19303654. The settings on record: Huh-5-2 cells; cited from earlier work.
Series [3] has as its system Huh-5-2 cells. Also on record: method as in PMID 19303654. The conditions noted are these: cited from earlier work.
The test system of series [4] is HCV genotype 1b subgenomic replicon. The experiment in a line: Anti-HCV assay in Huh 5-2 cells (luciferase replicon readout). Type of series: cell-based, hepatitis C virus (HCV). The conditions noted are these: for EC50: Hepatitis C virus, Huh-5-2, Huh 5-2 cells, luminescence; for SI (CC50/EC50): Huh 5-2 cells. From the text: (§1) An evaluation of the antiviral effects of the conjugated compounds was initially performed in Huh 5-2 cells utilizing the HCV genotype 1b subgenomic replicon system, based on previously reported procedures. By analyzing the dose–response curves, we calculated the concentration of each compound that inhibited the viral replication by 50% (EC50) and the concentration that reduced the host-cell metabolic activity by 50% (CC50). These values were then used to compute the selectivity index (SI = CC50/EC50), which serves as an indicator of a compound’s therapeutic window. Even if an EC50 was determined from the dose–response curve in the antiviral assay, the compounds that were evaluated may not qualify as promising hits. […] It is likely that the antiviral activity observed in the other compounds is due to their nonspecific or pleiotropic effects on the host cell.
Huh 5-2 cells were plated in white, tissue culture-treated 96-well view plates (Packard, Canberra, Canada) at a density of 5 × 10^3 cells per well, using complete Dulbecco’s Modified Eagle Medium (DMEM) containing 250 µg/mL G418. Following 24 h incubation at 37 °C with 5% CO2, the medium was discarded and serial 3-fold dilutions of the test compounds—prepared in complete DMEM lacking G418—were added to reach a final volume of 100 µL per well. After an additional 4-day incubation period under the same conditions, the medium was removed, and luciferase activity was assessed using the Steady-Glo luciferase assay kit (Promega, Leiden, The Netherlands). Luminescence was measured with a Luminoskan Ascent reader (Thermo, Vantaa, Finland). The EC50 value was determined as the compound concentration resulting in a 50% decrease in luciferase signal.

Series [5] is described as follows: Host-cell metabolic activity (MTS assay) in Huh 5-2 cells. The conditions noted are these: human. It counts as cell-based.
Source text: as §1
(In general: Tetrazolium dyes change colour on reduction, which living cells bring about.)

For series [6], the system named is HCV subgenomic replicon. The experiment in a line: Anti-HCV assay in Huh 9-13 cells (real-time quantitative RT-PCR of replicon RNA). Type of series: cell-based, hepatitis C virus (HCV). The conditions noted are these: for % replicon RNA: normalized against no-drug control; for EC50: Hepatitis C virus. As to the method:
Furthermore, the antiviral activity of three of the hits (i.e., 7a, 7b, and 18) was validated by evaluation of the dose–response effect of treatment with the compounds at the level of viral RNA replication in the Huh 9-13 assay system. The real-time quantitative RT-PCR readout was used.
Huh 9-13 cells were seeded at 5 × 10^3 cells per well into 96-well plates containing complete DMEM supplemented with 1000 µg/mL G418. […] After 4 days of incubation, the culture medium was removed, and the cell monolayers were washed once with phosphate-buffered saline (PBS). Cells were then lysed using 350 µL of RLT buffer (Qiagen, Venlo, The Netherlands) as per the manufacturer’s protocol, and the lysates were stored at −80 °C for future analysis. Upon completion of sample collection, RNA was extracted, and the samples were analyzed through quantitative real-time PCR to measure their HCV replicon content. The real-time RT-PCR data for all samples were calibrated against the “no-drug control”.
* After collection of all samples, RNA was extracted and samples were analyzed by quantitative real-
time PCR for their HCV replicon content. Real-time RT-PCR values of all assayed samples were
normalized against the “no-drug control”.

The nature of series [7]: Host-cell metabolic activity in Huh 9-13 cells. The conditions noted are these: human. It counts as cell-based.
Series [8] relates to Huh 9-13 cells. Kind of series: Host-cell metabolic activity in Huh 9-13 cells. It counts as cell-based.
Series [9] concerns Detroit 551 cells. The experiment in a line: Cell viability (MTS) assay in Detroit 551 cells. The settings on record: Detroit 551 cells. Type of series: cell-based. The method, then:
Detroit 551 cells, a human fibroblast cell line, are routinely employed to assess both acute and chronic toxicity in normal human cells. Evaluating the cytotoxicity of compounds in Detroit 551 cells helps to identify potential safety concerns early in drug development. The three promising leads, 7a, 7b, and 18, were tested in a Detroit 551 assay using the antineoplastic and antibiotic agent actinomycin D as a positive control.
Detroit 551 cells were harvested and seeded into a 96-well plate, then incubated at 37 °C for 24 h. A serial dilution of the test compound was prepared in eight three-fold concentrations (20,000 nM, 6667 nM, 2222 nM, 741 nM, 247 nM, 82 nM, 27 nM, and 9 nM), and 10 µL of each dilution was added to the corresponding wells. The plate was then returned to 37 °C for an additional 72 h of incubation. After this incubation, a 3-(4,5-dimethylthiazol-2-yl)-5-(3-carboxymethoxyphenyl)-2-(4-sulfophenyl)-2H-tetrazolium (MTS) assay medium (mixed in a 2:0.1 ratio of MTS–phenazine methyl sulfate (PMS)) was prepared. The plate was moved to a biological safety cabinet, and 21 µL of the MTS medium was added to each well. The plate was then incubated at 37 °C for 90 min before absorbance was measured at 490 nm on a Victor 2 plate reader (PerkinElmer, Inc., Waltham, MA, USA). Data were subsequently analyzed to assess cytotoxicity.

Setting [10] is: primary screening, tested starting at 50 μg/mL.
Setting [11] is: secondary screen starting at 125 μg/mL.

Usually EC50 stands for the concentration giving half of the maximal effect. With `CC(C)OC(=O)[C@H](C)N[P@](=O)(OC[C@@]1(F)O[C@@H](n2ccc(=O)[nH]c2=O)[C@](C)(O)[C@@H]1O)Oc1ccccc1` [AL-335], the EC50 in series [1] is 0.07 µM.
The CC50 is the concentration giving 50% cytotoxicity. As to `CC(C)(C)NC(=O)N[C@H](C(=O)N1C[C@H]2[C@@H]([C@H]1C(=O)NC(CC1CCC1)C(=O)C(N)=O)C2(C)C)C(C)(C)C` (stereo partly drawn) [boceprevir], the EC50 in series [2] is 0.93 µM. Besides, the cytotoxic concentration (CC50) in series [3] was no less than 7.4 µM.
In general, IC50 refers to the concentration that gives 50% inhibition. With `O=c1oc2ccc(Cl)cc2cc1CSc1ncnc2[nH]cnc12` [Compound 7a, 6-[(6′-Chlorocoumarin-3′-yl)methylthio]purine], the EC50 in series [4] (setting [10]) worked out at 8.6 µM; in [4] (secondary screen starting at 125 μg/mL, average of triplicate), 4.8 µM; in series [6] (real-time quantitative RT-PCR readout), 7.3 µM; in series [6] (supplement dose-response data) it was 2.5 µg/mL. In addition, the “SI (CC50/EC50)” value is greater than 17 in series [4] (primary screening starting at 50 μg/mL), greater than 76 in series [4] (setting [11]) and greater than 20 in [6]. Besides, the half-maximal cytotoxic concentration (CC50) in series [5] (setting [10]) is greater than 145 µM; in series [5] (setting [11]) it was greater than 363 µM; in series [7] (compound 18 tested starting at 125 µg/mL), greater than 145 µM; in [7] (supplement dose-response data), greater than 50 µg/mL. Further, the “Quantity (HCV replicon RNA, real-time PCR)” value in series [6] (0.023 µg/ml) was 1.12E-04; in [6] (0.069 µg/ml) it was 1.44E-04; in series [6] (0.206 µg/ml), 1.36E-04; in series [6] (0.617 µg/ml), 8.96E-05; in series [6] (5.56 µg/ml), 2.70E-05; in [6] (16.67 µg/ml), 1.20E-05. The “Quantity (HCV replicon RNA, real-time PCR)” value is recorded as 4.54E-06 in [6] (50 µg/ml) and 7.41E-05 in series [6] (1.852 (7b: 1.85) µg/ml). The “% replicon RNA” value in series [6] (0.023 µg/ml) was 93%; in series [6] (0.069 µg/ml), 119%; in series [6] (0.206 µg/ml), 112%; in series [6] (0.617 µg/ml), 74%; in [6] (5.56 µg/ml) it was 22%; in [6] (16.67 µg/ml), 10%. Also, the “% replicon RNA” value is given as 4% in [6] (50 µg/ml) and 61% in series [6] (1.852 (7b: 1.85) µg/ml). Further, the “% cell metabolism” value in series [8] (0.023 µg/ml) is listed as 109%; in [8] (0.069 µg/ml), 104%; in series [8] (0.206 µg/ml), 109%; in [8] (0.617 µg/ml) it was 105%; in [8] (5.56 µg/ml), 112%; in series [8] (16.67 µg/ml) it was 115%. Moreover, the results for the “% cell metabolism” value in [8] (50 µg/ml) and in [8] (1.852 (7b: 1.85) µg/ml) were 92% and 109%, respectively. Besides, in series [9] (20 μM), the “cell death at highest tested concentration” value was “none of the three compounds induced cell death”. Besides, the IC50 in [9] (Homo sapiens, 72 h incubation, tested starting at 20.0 μM, read-out: IC50 (cell survival rate of 50%)) is greater than 20 µM.
Take `CCC[C@H](NC(=O)[C@@H]1[C@H]2CCC[C@H]2CN1C(=O)[C@@H](NC(=O)[C@@H](NC(=O)c1cnccn1)C1CCCCC1)C(C)(C)C)C(=O)C(=O)NC1CC1` [telaprevir]: the concentration for a half-maximal effect (EC50) in series [2] was 1.1 µM. Moreover, the CC50 in series [3] is no less than 24 µM.
